{"source": "patent US4874869A", "about": "“Hydantoin derivatives and medicines containing the same” (Eisai Co., Ltd., priority 1980, dated 1989)", "key": {"[1]": {"tested_on": "sorbitol accumulation in the lens and the sciatic nerve", "assay": "Reduction or inhibition of sorbitol accumulation in the lens and the sciatic nerve of streptozotocin-induced diabetic rats", "assay_type": "in vivo, rat", "details": "vs no compound", "experimental": "The compounds listed in Tables 1 and 2 were tested for the ability to reduce or inhibit the accumulation of sorbitol in the lens and the sciatic nerve of streptozotocin-induced diabetic rats by the method of M. J. Peterson et al., [Metabolism, Vol. 28, No. 4, Supply. 1 (April), 456-461 (1979)]. […] In this experiment, the amount of sorbitol accumulation in the lens and the sciatic nerve of the rat was measured 28 hours after induction of diabetes.\nThe compounds listed in Tables 1 and 2 were orally administered at, the dose levels indicated in the Tables, 4, 8 and 25 hours after the administration of the streptozotocin."}, "[2]": {"tested_on": "cataract formation in galactosemic rats", "assay": "Effect on cataract formation in galactosemic rats (visual observation of lenticular opacities)", "assay_type": "in vivo, male Sprague-Dawley rats", "details": "for lenticular opacities, number with grade + / lenticular opacities, number with grade - (no opacity): 16th day, total 6", "experimental": "(§1) On the 16th day of the study (24 hours after the final administration) lenticular opacities were observed, and then the lens and the sciatic nerve were enucleated to determine the content of carbohydrates.\nThe abscissa in FIG. 1 indicates the number of days from the beginning of feeding of a 30% galactose diet, and the ordinate indicates the percentages of appearance of the cataract.\nIn Table 3, a symbol - represents the case of no opacity and +, ++, +++ show the grade of the opacity, respectively."}, "[3]": {"tested_on": "galactitol accumulation in the lens and the sciatic nerve", "assay": "Inhibition of galactitol accumulation in the lens and the sciatic nerve of galactosemic rats", "assay_type": "in vivo, male Sprague-Dawley rats", "details": "for Inhibition of galactitol accumulation: 16th day", "experimental": "as §1"}, "aldose reductase": {"target": "T1, aldose reductase (Bos taurus, UniProt P16116)", "T1 construct": "Aldose reductase was prepared by the method of Hayman et al; from tissue", "assay": "Inhibition effect on aldose reductase", "assay_type": "biochemical", "experimental": "Aldose reductase was prepared by the method of Hayman et al. [S. Hayman and K.K. Kinoshita; Journal of Biological Chemistry, Vol. 240, p."}}}
{"smiles": "CC1(C)CC2(NC(=O)NC2=O)c2cc(Cl)ccc2O1", "note": "(centres unmarked) [6-Chloro-2,2-dimethyl-spiro-[chroman-4,4'-imidazolidine]-2',5'-dione]", "values": [{"measurement": "Inhibition of sorbitol accumulation", "setting": "[1]; lens, 0.2 mg/kg oral, 4, 8 and 25 h after streptozotocin", "result": 11, "unit": "%"}, {"measurement": "Inhibition of sorbitol accumulation", "setting": "[1]; lens, 1 mg/kg oral, 4, 8 and 25 h after streptozotocin", "result": 60, "unit": "%"}, {"measurement": "Inhibition of sorbitol accumulation", "setting": "[1]; lens, 5 mg/kg oral, 4, 8 and 25 h after streptozotocin", "result": 78, "unit": "%"}, {"measurement": "Inhibition of sorbitol accumulation", "setting": "[1]; lens, 10 mg/kg oral, 4, 8 and 25 h after streptozotocin", "result": 89, "unit": "%"}, {"measurement": "Inhibition of sorbitol accumulation", "setting": "[1]; sciatic nerve, 0.2 mg/kg oral, 4, 8 and 25 h after streptozotocin", "result": 47, "unit": "%"}, {"measurement": "Inhibition of sorbitol accumulation", "setting": "[1]; sciatic nerve, 1 mg/kg oral, 4, 8 and 25 h after streptozotocin", "result": 86, "unit": "%"}, {"measurement": "Inhibition of sorbitol accumulation", "setting": "[1]; sciatic nerve, 5 mg/kg oral, 4, 8 and 25 h after streptozotocin", "result": 95, "unit": "%"}, {"measurement": "Inhibition of sorbitol accumulation", "setting": "[1]; sciatic nerve, 10 mg/kg oral, 4, 8 and 25 h after streptozotocin", "result": 100, "unit": "%"}, {"measurement": "lenticular opacities on the 16th day (in words)", "setting": "[2]; 5 mg/kg oral once a day", "result": "lenticular opacities were not observed"}, {"measurement": "lenticular opacities on the 16th day (in words)", "setting": "[2]; 25 mg/kg oral once a day", "result": "lenticular opacities were not observed"}, {"measurement": "inhibition effect on cataract formation (in words)", "setting": "[2]; galactosemic rats, FIG. 1 and Table 3", "result": "superior to the control compound"}, {"measurement": "lenticular opacities, number with grade +", "setting": "[2]; left, 1 mg/kg oral once a day", "result": 1}, {"measurement": "lenticular opacities, number with grade - (no opacity)", "setting": "[2]; left, 1 mg/kg oral once a day", "result": 5}, {"measurement": "lenticular opacities, number with grade - (no opacity)", "setting": "[2]; left, 5 mg/kg oral once a day", "result": 6}, {"measurement": "lenticular opacities, number with grade - (no opacity)", "setting": "[2]; left, 25 mg/kg oral once a day", "result": 6}, {"measurement": "lenticular opacities, number with grade +", "setting": "[2]; right, 1 mg/kg oral once a day", "result": 1}, {"measurement": "lenticular opacities, number with grade - (no opacity)", "setting": "[2]; right, 1 mg/kg oral once a day", "result": 5}, {"measurement": "lenticular opacities, number with grade - (no opacity)", "setting": "[2]; right, 5 mg/kg oral once a day", "result": 6}, {"measurement": "lenticular opacities, number with grade - (no opacity)", "setting": "[2]; right, 25 mg/kg oral once a day", "result": 6}, {"measurement": "Inhibition of galactitol accumulation", "setting": "[3]; lens, 1 mg/kg oral once a day", "result": 2, "unit": "%"}, {"measurement": "Inhibition of galactitol accumulation", "setting": "[3]; lens, 5 mg/kg oral once a day", "result": 19, "unit": "%"}, {"measurement": "Inhibition of galactitol accumulation", "setting": "[3]; lens, 25 mg/kg oral once a day", "result": 46, "unit": "%"}, {"measurement": "Inhibition of galactitol accumulation", "setting": "[3]; sciatic nerve, 1 mg/kg oral once a day", "result": 5, "unit": "%"}, {"measurement": "Inhibition of galactitol accumulation", "setting": "[3]; sciatic nerve, 5 mg/kg oral once a day", "result": 50, "unit": "%"}, {"measurement": "Inhibition of galactitol accumulation", "setting": "[3]; sciatic nerve, 25 mg/kg oral once a day", "result": 74, "unit": "%"}, {"measurement": "inhibitory effect on galactitol accumulation in the sciatic nerve relative to the control compound", "setting": "[3]; sciatic nerve, vs control compound", "result": "five times or more"}, {"measurement": "inhibition of galactitol accumulation relative to the control compound", "setting": "[3]; vs control compound", "result": "remarkably superior to the control compound"}, {"measurement": "Inhibition on aldose reductase", "setting": "aldose reductase; 3 × 10^-6 (M)", "result": 79, "unit": "%"}, {"measurement": "Inhibition on aldose reductase", "setting": "aldose reductase; 3 × 10^-7 (M)", "result": 8, "unit": "%"}, {"measurement": "Inhibition on aldose reductase", "setting": "aldose reductase; 10^-6 (M)", "result": 47, "unit": "%"}, {"measurement": "Inhibition on aldose reductase", "setting": "aldose reductase; 10^-7 (M)", "result": -4, "unit": "%"}, {"measurement": "IC50", "setting": "aldose reductase; Table 5, read-out: ID50 (concentration of 50% inhibition on aldose reductase)", "result": 1, "unit": "µM"}]}
